Test results as given in US20240025919A1, “AZA-TETRACYCLIC OXAZEPINE COMPOUNDS AND USES THEREOF” (Genentech, Inc., priority 2022, published 2024).

What was measured:
KRAS G12D = KRAS G12D (Homo sapiens (Human), UniProt P01116, G12D); experiment: KRAS G12D LoEnz Biochemical Assay, BODIPY-GDP Exchange TR-FRET (SOS1-mediated nucleotide exchange); conditions: read-out: KRas (G12D) GDP HTRF IC50
KRAS WT = KRAS WT (Homo sapiens (Human), UniProt P01116); experiment: KRAS WT Biochemical Assay, BODIPY-GDP Exchange TR-FRET (Example 501; 3 nM KRAS WT, 3 nM SOS1, 60-minute incubation); conditions: read-out: KRas HTRF IC50
How it was run: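 SOS1-mediated exchange assay: 3 nM biotin-KRAS WT with terbium-streptavidin, started with 3 nM SOS1 and 300 nM BODIPY-GDP, HEPES pH 7.5 with MgCl2. TR-FRET (520/490 nm) read after 60 min; normalized to DMSO and full-inhibition control, IC50 from 4-parameter Hill fit.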

Sequence of KRAS WT (P01116-2 other isoform, or with tags, fused parts or gaps): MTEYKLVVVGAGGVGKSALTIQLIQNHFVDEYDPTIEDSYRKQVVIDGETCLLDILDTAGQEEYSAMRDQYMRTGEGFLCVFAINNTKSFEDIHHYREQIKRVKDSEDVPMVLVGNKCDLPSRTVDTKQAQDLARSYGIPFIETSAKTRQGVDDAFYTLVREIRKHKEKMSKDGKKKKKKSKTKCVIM
Sequence of KRAS G12D (P01116-2 other isoform, or with tags, fused parts or gaps G12D): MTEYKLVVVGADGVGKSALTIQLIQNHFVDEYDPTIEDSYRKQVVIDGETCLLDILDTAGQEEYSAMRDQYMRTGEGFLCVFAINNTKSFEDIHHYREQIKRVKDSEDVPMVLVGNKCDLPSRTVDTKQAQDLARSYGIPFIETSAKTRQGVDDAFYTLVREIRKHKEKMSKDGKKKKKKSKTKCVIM

C[C@@H]1Oc2nc(N(C)c3ccc(F)c(N)c3)c(F)c3nc(OC[C@@]45CCCN4C[C@H](F)C5)nc(c23)N2C[C@H]3CC[C@H](N3)[C@@H]12 [Compound 193, 4-fluoro-Ni-((5S,5aS,6S,9R)-1-fluoro-12-(((2R,7aS)-2-fluorotetrahydro-1H-pyrrolizin-7a(5H)-yl)methoxy)-5-methyl-5a,6,7,8,9,10-hexahydro-5H-4-oxa-3,10a,11,13,14-pentaaza-6,9-methanonaphtho[1,8-ab]heptalen-2-yl)-Ni-methylbenzene-1,3-diamine]
IC50 (KRAS G12D): 32800 nM | IC50 (KRAS WT): 128000 nM

Cc1nc(N)c(F)c(-c2nc3c4c(nc(OC[C@@]56CCCN5C[C@H](F)C6)nc4c2F)N2C[C@H]4CC[C@H](N4)[C@H]2[C@H](C)O3)c1C(F)(F)F [Compound 194, 3-Fluoro-4-((5S,5aS,6S,9R)-1-fluoro-12-(((2R,7aS)-2-fluorotetrahydro-1H-pyrrolizin-7a(5H)-yl)methoxy)-5-methyl-5a,6,7,8,9,10-hexahydro-5H-4-oxa-3,10a,11,13,14-pentaaza-6,9-methanonaphtho[1,8-ab]heptalen-2-yl)-6-methyl-5-(trifluoromethyl)pyridin-2-amine]
IC50 (KRAS G12D): 0.42 nM | IC50 (KRAS WT): 28.9 nM

Cc1c(F)c(N)c(F)c(-c2nc3c4c(nc(OC[C@@]56CCCN5C[C@H](F)C6)nc4c2F)N2C[C@H]4CC[C@H](N4)[C@H]2[C@H](C)O3)c1Cl [Compound 195, 4-Chloro-2,6-difluoro-3-((5S,5aS,6S,9R)-1-fluoro-12-(((2R,7aS)-2-fluorotetrahydro-1H-pyrrolizin-7a(5H)-yl)methoxy)-5-methyl-5a,6,7,8,9,10-hexahydro-5H-4-oxa-3,10a,11,13,14-pentaaza-6,9-methanonaphtho[1,8-ab]heptalen-2-yl)-5-methylaniline]
IC50 (KRAS G12D): 0.44 nM | IC50 (KRAS WT): 108 nM

C[C@@H]1Oc2nc(-c3c(F)ccc4cc[nH]c(=O)c34)c(F)c3nc(OC[C@@]45CCCN4C[C@H](F)C5)nc(c23)N2C[C@H]3CC[C@H](N3)[C@@H]12 [Compound 196, 7-Fluoro-8-((5S,5aS,6S,9R)-1-fluoro-12-(((2R,7aS)-2-fluorotetrahydro-1H-pyrrolizin-7a(5H)-yl)methoxy)-5-methyl-5a,6,7,8,9,10-hexahydro-5H-4-oxa-3,10a,11,13,14-pentaaza-6,9-methanonaphtho[1,8-ab]heptalen-2-yl)isoquinolin-1(2H)-one]
IC50 (KRAS G12D): 248 nM | IC50 (KRAS WT): 20100 nM

Cc1nc(N)c(Cl)c(-c2nc3c4c(nc(OC[C@@]56CCCN5C[C@H](F)C6)nc4c2F)N2C[C@H]4CC[C@H](N4)[C@H]2[C@H](C)O3)c1C(F)(F)F [Compound 197, 3-Chloro-4-((5S,5aS,6S,9R)-1-fluoro-12-(((2R,7aS)-2-fluorotetrahydro-1H-pyrrolizin-7a(5H)-yl)methoxy)-5-methyl-5a,6,7,8,9,10-hexahydro-5H-4-oxa-3,10a,11,13,14-pentaaza-6,9-methanonaphtho[1,8-ab]heptalen-2-yl)-6-methyl-5-(trifluoromethyl)pyridin-2-amine]
IC50 (KRAS G12D): 0.46 nM | IC50 (KRAS WT): 59.8 nM

Cc1nc(N)c(C)c(-c2nc3c4c(nc(OC[C@@]56CCCN5C[C@H](F)C6)nc4c2F)N2C[C@H]4CC[C@H](N4)[C@H]2[C@H](C)O3)c1C(F)(F)F [Compound 198, 4-((5S,5aS,6S,9R)-1-Fluoro-12-(((2R,7aS)-2-fluorotetrahydro-1H-pyrrolizin-7a(5H)-yl)methoxy)-5-methyl-5a,6,7,8,9,10-hexahydro-5H-4-oxa-3,10a,11,13,14-pentaaza-6,9-methanonaphtho[1,8-ab]heptalen-2-yl)-3,6-dimethyl-5-(trifluoromethyl)pyridin-2-amine]
IC50 (KRAS G12D): 0.62 nM | IC50 (KRAS WT): 85.8 nM

C[C@@H]1Oc2nc(-c3cc(N)cc4c3CC4)c(F)c3nc(OC[C@@]45CCCN4C[C@H](F)C5)nc(c23)N2C[C@H]3CC[C@H](N3)[C@@H]12 [Compound 201, 5-((5S,5aS,6S,9R)-1-Fluoro-12-(((2R,7aS)-2-fluorotetrahydro-1H-pyrrolizin-7a(5H)-yl)methoxy)-5-methyl-5a,6,7,8,9,10-hexahydro-5H-4-oxa-3,10a,11,13,14-pentaaza-6,9-methanonaphtho[1,8-ab]heptalen-2-yl)bicyclo[4.2.0]octa-1(6),2,4-trien-3-amine]
IC50 (KRAS G12D): 9.19 nM | IC50 (KRAS WT): 1620 nM

Cc1c(F)c(O)cc(-c2nc3c4c(nc(OC[C@@]56CCCN5C[C@H](F)C6)nc4c2F)N2C[C@H]4CC[C@H](N4)[C@H]2[C@H](C)O3)c1C(F)(F)F [Compound 202, 2-Fluoro-5-((5S,5aS,6S,9R)-1-fluoro-12-(((2R,7aS)-2-fluorotetrahydro-1H-pyrrolizin-7a(5H)-yl)methoxy)-5-methyl-5a,6,7,8,9,10-hexahydro-5H-4-oxa-3,10a,11,13,14-pentaaza-6,9-methanonaphtho[1,8-ab]heptalen-2-yl)-3-methyl-4-(trifluoromethyl)phenol]
IC50 (KRAS G12D): 1.98 nM | IC50 (KRAS WT): 214 nM

Cc1c(F)ccc(-c2nc3c4c(nc(OC[C@@]56CCCN5C[C@H](F)C6)nc4c2F)N2C[C@H]4CC[C@H](N4)[C@H]2[C@H](C)O3)c1C(F)(F)F [Compound 203, (5S,5aS,6S,9R)-1-fluoro-2-(4-fluoro-3-methyl-2-(trifluoromethyl)phenyl)-12-(((2R,7aS)-2-fluorotetrahydro-1H-pyrrolizin-7a(5H)-yl)methoxy)-5-methyl-5a,6,7,8,9,10-hexahydro-5H-4-oxa-3,10a,11,13,14-pentaaza-6,9-methanonaphtho[1,8-ab]heptalene]
IC50 (KRAS G12D): 26.8 nM | IC50 (KRAS WT): 1590 nM

Cc1c(F)c(N)c(F)c(-c2nc3c4c(nc(OC[C@@]56CCCN5C[C@H](F)C6)nc4c2F)N2C[C@H]4CC[C@H](N4)[C@H]2[C@H](C)O3)c1I [Compound 204, 2,6-Difluoro-3-((5S,5aS,6S,9R)-1-fluoro-12-(((2R,7aS)-2-fluorotetrahydro-1H-pyrrolizin-7a(5H)-yl)methoxy)-5-methyl-5a,6,7,8,9,10-hexahydro-5H-4-oxa-3,10a,11,13,14-pentaaza-6,9-methanonaphtho[1,8-ab]heptalen-2-yl)-4-iodo-5-methylaniline]
IC50 (KRAS G12D): 0.385 nM | IC50 (KRAS WT): 69.1 nM

Cc1nc(N)cc(-c2nc3c4c(nc(OCC5(CN6CC7COCC7C6)CC5)nc4c2F)N2C[C@H]4CC[C@H](N4)[C@H]2[C@H](C)O3)c1C(F)(F)F (stereo partly drawn) [Compound 205, 4-((5S,5aS,6S,9R)-1-Fluoro-5-methyl-12-((1-((tetrahydro-1H-furo[3,4-c]pyrrol-5(3H)-yl)methyl)cyclopropyl)methoxy)-5a,6,7,8,9,10-hexahydro-5H-4-oxa-3,10a,11,13,14-pentaaza-6,9-methanonaphtho[1,8-ab]heptalen-2-yl)-6-methyl-5-(trifluoromethyl)pyridin-2-amine]
IC50 (KRAS G12D): 3.39 nM | IC50 (KRAS WT): 8.61 nM

Cc1nc(N)cc(-c2nc3c4c(nc(OCC5(CN6C7CCC6COC7)CC5)nc4c2F)N2C[C@H]4CC[C@H](N4)[C@H]2[C@H](C)O3)c1C(F)(F)F [Compound 206, 4-((5S,5aS,6S,9R)-12-((1-((3-Oxa-8-azabicyclo[3.2.1]octan-8-yl)methyl)cyclopropyl)methoxy)-1-fluoro-5-methyl-5a,6,7,8,9,10-hexahydro-5H-4-oxa-3,10a,11,13,14-pentaaza-6,9-methanonaphtho[1,8-ab]heptalene-2-yl)-6-methyl-5-(trifluoromethyl)pyridin-2-amine]
IC50 (KRAS G12D): 0.17 nM | IC50 (KRAS WT): 24.2 nM

Cc1nc(N)cc(-c2nc3c4c(nc(OCC5(CN6CC7CCC(C6)O7)CC5)nc4c2F)N2C[C@H]4CC[C@H](N4)[C@H]2[C@H](C)O3)c1C(F)(F)F [Compound 207, 4-((5S,5aS,6S,9R)-12-((1-((8-oxa-3-azabicyclo[3.2.1]octan-3-yl)methyl)cyclopropyl)methoxy)-1-fluoro-5-methyl-5a,6,7,8,9,10-hexahydro-5H-4-oxa-3,10a,11,13,14-pentaaza-6,9-methanonaphtho[1,8-ab]heptalene-2-yl)-6-methyl-5-(trifluoromethyl)pyridin-2-amine]
IC50 (KRAS G12D): 0.36 nM | IC50 (KRAS WT): 43.1 nM

Cc1nc(N)cc(-c2nc3c4c(nc(OCC5(CN6C[C@@H]7C[C@H]6CO7)CC5)nc4c2F)N2C[C@H]4CC[C@H](N4)[C@H]2[C@H](C)O3)c1C(F)(F)F [Compound 208, 4-((5S,5aS,6S,9R)-12-((1-(((1S,4S)-2-Oxa-5-azabicyclo[2.2.1]heptan-5-yl)methyl)cyclopropyl)methoxy)-1-fluoro-5-methyl-5a,6,7,8,9,10-hexahydro-5H-4-oxa-3,10a,11,13,14-pentaaza-6,9-methanonaphtho[1,8-ab]heptalene-2-yl)-6-methyl-5-(trifluoromethyl)pyridin-2-amine]
IC50 (KRAS G12D): 0.31 nM | IC50 (KRAS WT): 24.7 nM

Cc1nc(N)cc(-c2nc3c4c(nc(OCC5(CN6C[C@H]7C[C@@H]6CO7)CC5)nc4c2F)N2C[C@H]4CC[C@H](N4)[C@H]2[C@H](C)O3)c1C(F)(F)F [Compound 209, 4-((5S,5aS,6S,9R)-12-((1-(((1R,4R)-2-Oxa-5-azabicyclo[2.2.1]heptan-5-yl)methyl)cyclopropyl)methoxy)-1-fluoro-5-methyl-5a,6,7,8,9,10-hexahydro-5H-4-oxa-3,10a,11,13,14-pentaaza-6,9-methanonaphtho[1,8-ab]heptalene-2-yl)-6-methyl-5-(trifluoromethyl)pyridin-2-amine]
IC50 (KRAS G12D): 0.24 nM | IC50 (KRAS WT): 18.5 nM

Cc1nc(N)cc(-c2nc3c4c(nc(OCC5(CN6CC7CCC6CO7)CC5)nc4c2F)N2C[C@H]4CC[C@H](N4)[C@H]2[C@H](C)O3)c1C(F)(F)F [Compound 211, 4-((5S,5aS,6S,9R)-12-((1-((2-Oxa-5-azabicyclo[2.2.2]octan-5-yl)methyl)cyclopropyl)methoxy)-1-fluoro-5-methyl-5°,6,7,8,9,10-hexahydro-5H-4-oxa-3,10°,11,13,14-pentaaza-6,9-methanonaphtho[1,8-ab]heptalen-2-yl)-6-methyl-5-(trifluoromethyl)pyridin-2-amine]
IC50 (KRAS G12D): 0.21 nM | IC50 (KRAS WT): 17.8 nM
